The source of these data is patent publication EP2042491A1, “Pyridazines as fungicides” (Bayer CropScience AG, priority 2007, dated 2009).

One data set has as its system Leptosphaeria nodorum. The data set can be described thus: Leptosphaeria nodorum test (wheat) / protective. Format: in vivo. The settings on record: 1000 ppm active compound; protective spray on young wheat plants; evaluated 10 days after inoculation; 0% = as control, 100% = no infection. From the text: (§1) Zur Herstellung einer zweckmäßigen Wirkstoffzubereitung vermischt man 1 Gewichtsteil Wirkstoff mit den angegebenen Mengen Lösungsmittel und Emulgator und verdünnt das Konzentrat mit Wasser auf die gewünschte Konzentration.
Zur Prüfung auf protektive Wirksamkeit werden junge Pflanzen mit der Wirkstoffzubereitung in der angegebenen Aufwandmenge besprüht. Nach Antrocknen des Spritzbelages werden die Pflanzen mit einer Sporensuspension von Leptosphaeria nodor um besprüht. Die Pflanzen verbleiben 48 Stunden bei 20 °C und 100 % relativer Luftfeuchtigkeit in einer Inkubationskabine.
Die Pflanzen werden in einem Gewächshaus bei einer Temperatur von ca. 20 °C und einer relativen Luftfeuchtigkeit von 80 % aufgestellt.
(§2) 10 Tage nach der Inokulation erfolgt die Auswertung. Dabei bedeutet 0% ein Wirkungsgrad, der demjenigen der Kontrolle entspricht, während ein Wirkungsgrad von 100% bedeutet, daß kein Befall beobachtet wird.

The conditions of data set [1]: for logP^a): HPLC on reversed-phase C18, 40°C, 0.1% aqueous formic acid / acetonitrile, linear gradient 10-95% acetonitrile.
The next data set concerns Venturia inaequalis. The data set can be described thus: Venturia inaequalis test (apple) / protective. Format: in vivo. The settings on record: 100 ppm active compound; protective spray on young apple plants; evaluated 10 days after inoculation; 0% = as control, 100% = no infection.
Text: as §1
Zur Prüfung auf protektive Wirksamkeit werden junge Pflanzen mit der Wirkstoffzubereitung in der angegebenen Aufwandmenge besprüht. Nach Antrocknen des Spritzbelages werden die Pflanzen mit einer wäßrigen Konidiensuspension des Apfelschorferregers Venturia inaequalis inokuliert und verbleiben dann 1 Tag bei ca. 20 °C und 100% relativer Luftfeuchtigkeit in einer Inkubations-kabine.
Die Pflanzen werden dann im Gewächshaus bei ca. 21 °C und einer relativen Luftfeuchtigkeit von ca. 90% aufgestellt.
as §2

Another data set has as its system Septoria tritici. Briefly: Septoria tritici test (wheat) / protective. The data set is classed as in vivo. The settings on record: 1000 ppm active compound; protective spray on young wheat plants; evaluated 21 days after inoculation; 0% = as control, 100% = no infection.
Text: as §1
Zur Prüfung auf protektive Wirksamkeit werden junge Pflanzen mit der Wirkstoffzubereitung in der angegebenen Aufwandmenge besprüht. Nach Antrocknen des Spritzbelages werden die Pflanzen mit einer Sporensuspension von Septoria tritici besprüht. Die Pflanzen verbleiben 48 Stunden bei 20 °C und 100 % relativer Luftfeuchtigkeit in einer Inkubationskabine.
Die Pflanzen werden in einem Gewächshaus bei einer Temperatur von ca. 15 °C und einer relativen Luftfeuchtigkeit von 80 % aufgestellt.
21 Tage nach der Inokulation erfolgt die Auswertung. Dabei bedeutet 0% ein Wirkungsgrad, der demjenigen der Kontrolle entspricht, während ein Wirkungsgrad von 100% bedeutet, daß kein Befall beobachtet wird.

The subject of another data set is Sphaerotheca fuliginea. The data set can be described thus: Sphaerotheca fuliginea test (cucumber) / protective. Format: in vivo. The settings on record: 500 ppm active compound; protective spray on young cucumber plants; evaluated 7 days after inoculation; 0% = as control, 100% = no infection.
Text: as §1
Zur Prüfung auf protektive Wirksamkeit bespritzt man junge Gurkenpflanzen mit der Wirkstoffzubereitung in der angegebenen Aufwandmenge. 1 Tag nach der Behandlung werden die Pflanzen mit einer Sporensuspension von Sphaerotheca fuliginea inokuliert. Anschließend werden die Pflanzen in einem Gewächshaus bei 70 % relativer Luftfeuchtigkeit und einer Temperatur von 23 °C aufgestellt.
7 Tage nach der Inokulation erfolgt die Auswertung. Dabei bedeutet 0 % ein Wirkungsgrad, der demjenigen der Kontrolle entspricht, während ein Wirkungsgrad von 100 % bedeutet, daß kein Befall beobachtet wird.

The test system of a further data set is Alternaria solani. Format: in vivo. The settings on record: 168 h, 500 ppm. As to the method:
as §1
Zur Prüfung auf protektive Wirksamkeit bespritzt man junge Tomatenpflanzen mit der Wirkstoffzubereitung in der angegebenen Aufwandmenge. 1 Tag nach der Behandlung werden die Pflanzen mit einer Sporensuspension von Alternaria solani inokuliert und stehen dann 24h bei 100% rel. Feuchte und 20°C. Anschließend stehen die Pflanzen bei 96% rel. Luftfeuchtigkeit und einer Temperatur von 20 C.
7 Tage nach der Inokulation erfolgt die Auswertung. Dabei bedeutet 0 % ein Wirkungsgrad, der demjenigen der Kontrolle entspricht, während ein Wirkungsgrad von 100 % bedeutet, dass kein Befall beobachtet wird.

Another data set deals with Pyricularia oryzae. Format: in vivo. The settings on record: 500 ppm active compound; protective spray on young rice plants; evaluated 7 days after inoculation; 0% = as control, 100% = no infection.
A further data set relates to Botrytis cinerea. Briefly: Botrytis cinerea test (bean) / protective. The data set is classed as in vivo. The settings on record: 100 ppm active compound; protective spray on young bean plants; lesion size evaluated 2 days after inoculation; 0% = as control, 100% = no infection.
Text: as §1
Zur Prüfung auf protektive Wirksamkeit werden junge Pflanzen mit der Wirkstoffzubereitung in der angegebenen Aufwandmenge besprüht. Nach Antrocknen des Spritzbelages werden auf jedes Blatt 2 kleine mit Botrytis cinerea bewachsene Agarstückchen aufgelegt. Die inokulierten Pflanzen werden in einer abgedunkelten Kammer bei ca. 20 °C und 100% relativer Luftfeuchtigkeit aufgestellt.
2 Tage nach der Inokulation wird die Größe der Befallsflecken auf den Blättern ausgewertet. Dabei bedeutet 0% ein Wirkungsgrad, der demjenigen der Kontrolle entspricht, während ein Wirkungsgrad von 100% bedeutet, daß kein Befall beobachtet wird.

Read-outs that look alike come from different tables or passages of the source.

With `Cc1nnc(Cl)c(-c2c(F)cccc2Cl)c1Oc1ccc(Cl)cc1` [2-61, 3-Chlor-4-(2-chlor-6-fluorphenyl)-5-(4-chlorphenoxy)-6-methylpyridazin], the Wirkungsgrad with Leptosphaeria nodorum, in the data set on Venturia inaequalis and with Septoria tritici was at least 70% throughout. Also, in data set [1] (Table 2), the “logP^a)” value was 4,13.

With `Cc1nnc(Cl)c(-c2c(F)cccc2Cl)c1N[C@H](C)C(C)C` [1-100], the Wirkungsgrad in the data set on Sphaerotheca fuliginea, in the data set with Alternaria solani and in the data set with Pyricularia oryzae was at least 70% each time. For the same compound, in “physchem”, the chromatographic logP turned out to be 3.22.

As for `Cc1nnc(Cl)c(-c2c(F)cccc2Cl)c1OC1CCCCC1` [2-59], the Wirkungsgrad in the data set with Sphaerotheca fuliginea and in the data set on Pyricularia oryzae was at least 70% throughout. Besides, in “physchem”, the chromatographic logP was found to be 4.25.

For the compound `Cc1nnc(Cl)c(-c2c(F)cccc2Cl)c1Sc1ccc(Cl)cc1` [3-33, 3-Chlor-4-(2-chlor-6-fluorphenyl)-5-(4-chlorphenylsulfanyl)-6-methylpyridazin], the “logP^a)” value in [1] (Table 3) is 4,65. The compound also returned a chromatographic logP in the data set “physchem” of 4.65.

As for `Cc1nnc(Cl)c(-c2c(F)cccc2Cl)c1N1CCC(C)CC1` [1-93, 3-Chlor-4-(2-chlor-6-fluorphenyl)-6-methyl-5-(4-methylpiperidin-1-yl)pyridazin], the Wirkungsgrad with Botrytis cinerea, in the data set on Leptosphaeria nodorum, with Venturia inaequalis, with Septoria tritici, in the data set with Alternaria solani and in the data set with Pyricularia oryzae was at least 70% each time. Besides, the “logP^a)” value in data set [1] (Table 1) is 4,11. In addition, in “physchem”, the chromatographic logP came out at 4.11.

In the data set “physchem”, `Cc1nnc(Cl)c(-c2c(F)cccc2F)c1NC(C)C(C)C` (racemic) [1-62] came in with a chromatographic logP of 2.99.

The compound `Cc1nnc(Cl)c(-c2c(F)cccc2F)c1O` [5-1, 3-Chlor-4-(2,6-difluorphenyl)-5-hydroxy-6-methylpyridazin] registered a chromatographic logP in the data set “physchem” of 1.41.

Regarding `Cc1nnc(Cl)c(-c2c(F)cccc2F)c1N1CCOCC1` [1-59], the chromatographic logP in “physchem” amounted to 2.19.

As to `COc1ccc(COc2c(C)nnc(Cl)c2-c2c(F)cccc2F)cc1` [2-42, 3-Chlor-4-(2,6-difluorphenyl)-5-(4-Methoxybenzyloxy)-6-methylpyridazin], in the data set “physchem”, the chromatographic logP was 3.35.

The compound `Cc1nnc(Cl)c(-c2c(F)cccc2F)c1N1CCC(C)CC1` [1-58, 3-Chlor-4-(2,6-difluorphenyl)-6-methyl-5-(4-methylpiperidin-1-yl)pyridazin] had a chromatographic logP in the data set “physchem” of 3.87.

`Cc1nnc(Cl)c(-c2c(F)cccc2F)c1NCC(C)C` [1-48] gave a chromatographic logP in “physchem” of 2.64.

For the compound `Cc1nnc(Cl)c(-c2c(F)cccc2Cl)c1Oc1ccc(C#N)cc1` [2-77], the chromatographic logP in “physchem” amounted to 3.18.

Compound `Cc1nnc(Cl)c(-c2c(F)cccc2Cl)c1Oc1ccc(F)cc1` [2-67] showed a chromatographic logP in the data set “physchem” of 3.56.

In turn, `Cc1nn(Cc2ccccc2)c(=O)c(-c2c(F)cccc2Cl)c1O` [VI-1, 2-Benzyl-4-(2-chlor-6-fluorphenyl)-5-hydroxy-6-methylpyridazin-3(2H)-on] gave a chromatographic logP in the data set “physchem” of 2.58.

`CCOC(=O)/C(C)=N\N(Cc1ccccc1)C(=O)Cc1c(F)cccc1Cl` [V-1, Ethyl (2Z)-2-{benzyl[(2-chlor-6-fluorphenyl)acetyl] hydrazono}propanoat] returned a logP in [1] (given in the running text of the preparation examples; method presumably as footnote a) of the tables) of 3.87.

In the case of `Cc1nnc(Cl)c(-c2c(F)cccc2Cl)c1N1CC[Si](C)(C)CC1` [1-95], the chromatographic logP in “physchem” worked out at 4.75.

Consider `Cc1nnc(Cl)c(-c2c(F)cccc2F)c1OCC1CC1` [2-41], for which the chromatographic logP in “physchem” came out at 3.1.

On to `Cc1nnc(Cl)c(-c2c(F)cccc2Cl)c1N1CCOCC1` [1-94], for which the chromatographic logP in the data set “physchem” came out at 2.39.

The chromatographic logP is lipophilicity estimated from chromatographic retention. As usually defined, the logP is a log measure of how a compound divides between an organic and an aqueous phase. A low value points to a more hydrophilic compound.
